# In patent publication US20220396565A1 (Hoffmann-La Roche Inc., priority 2020, published 2022):
# Structures can show the parent of a compound that is named as a salt.
# Test system: Acinetobacter baumannii ATCC17978
# Assay: Antimicrobial susceptibility testing: 90% growth inhibitory concentration (IC90) determination, Iso-Sensitest broth
# Format: cell-based
# Settings: 90% growth inhibitory concentration, Acinetobacter baumannii ATCC17978, Iso-Sensitest broth; read-out: ATCC 17978 IC90
# In short: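 Growth at OD600 was monitored every 20 min for 16 h at 35±2 °C, with bacteria inoculated at ~5×10^(5) CFU/ml into Iso-Sensitest medium. Compounds were tested as 10-point twofold dilutions (e.g. 10–0.02 μM final). The 90% inhibitory concentration comes from the log-phase growth.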
smiles,measurement,value
"Cn1c(-c2ccc(OCC#N)c(F)c2F)cnc1C(=O)Nc1ccc(C(=O)N2CCN(C(=O)C3CCNCC3)CC2)c(Cl)c1 [Example 196, N-(3-chloro-4-(4-(piperidine-4-carbonyl)piperazine-1-carbonyl)phenyl)-5-(4-(cyanomethoxy)-2,3-difluorophenyl)-1-methyl 1H-imidazole-2-carboxamide formate]",IC90,70 nM
